What was measured:
[1] = tested on: Clostridium autoethanogenum DSM23693; assay: Toxicity of acetone and isopropanol on growing cultures; assay type: cell-based; details: at concentrations as high as 5%
Text: Several metabolites such as alcohols (ethanol and butanol) or acids (acetic acid and butyric acid) are known to be toxic for bacteria in high concentrations and thus limit their biotechnological production [Alsaker K V, Parades C, Papoutsakis E T: Metabolite stress and tolerance in the production of biofuels and chemicals—systems analysis of butanol, butyrate, and Acetate Stresses in the Anaerobe Clostridium acetobutylicum. Biotechnol Bioeng, 2009, 105: 1131-1147]. To see if acetone and isopropanol have a toxic effect on cultures, growth experiments were carried out in 50 ml PETC media (Table 2) in serum bottles, adding different concentrations of acetone (FIG. 12) and isopropanol (FIG. 13) to growing cultures of Clostridium autoethanogenum DSM23693.

[2] = tested on: C. autoethanogenum DSM23693; assay: Bottle growth experiments on CO-containing gas, acetone/isopropanol production from expression plasmids; assay type: cell-based, Clostridium autoethanogenum; details: Organism C. autoethanogenum, Substrate CO; for Acetone (g/L): 'Detected' = by GC qualitatively
Protocol: HPLC analysis of acetone, isopropanol and other metabolites was performed using an Agilent 1100 Series HPLC system equipped with a RID operated at 35° C. (Refractive Index Detector) and an Alltech IOA-2000 Organic acid column (150×6.5 mm, particle size 5 μm) kept at 60° C. Slightly acidified water was used (0.005 M H2SO4) as mobile phase with a flow rate of 0.7 ml/min. To remove proteins and other cell residues, 400 μl samples were mixed with 100 μl of a 2% (w/v) 5-Sulfosalicylic acid and centrifuged at 14,000×g for 3 min to separate precipitated residues. 10 μl of the supernatant were then injected into the HPLC for analyses.
GC analysis of acetone, isopropanol and other metabolites was performed using an Agilent 6890N headspace GC equipped with a Supelco PDMS 100 1 cm fiber, an Alltech EC-1000 (30 m×0.25 mm×0.25 μm) column, and a flame ionization detector (FID). 5 ml samples were transferred into a Hungate tube, heated to 40° C. in a water bath and exposed to the fiber for exactly 5 min. The injector was kept at 250° C. and helium with a constant flow of 1 ml/min was used as carrier gas. The oven program was 40° C. for 5 min, followed by an increase of 10° C./min up to 200° C. The temperature was then further increased to 220° C. with a rate of 50° C./min followed by a 5 min hold this temperature, before the temperature was decreased to 40° C. with a rate of 50° C./min and a final 1 min hold. The FID was kept at 250° C. with 40 ml/min hydrogen, 450 ml/min air and 15 ml/min nitrogen as make up gas.
Growth experiments were carried out with transformed C. autoethanogenum DSM23693 and C. ljungdahlii DSM 13528 carrying plasmid pMTL85147-thlA-ctfAB-adc in 250 ml PETC media (Table 2; without fructose and yeast extract) in 1 l Schott bottles with rubber stoppers and 30 psi steel mill gas (collected from New Zealand Steel site in Glenbrook, NZ; composition: 44% CO, 32% N2, 22% CO2, 2% H2) in the headspace as sole energy and carbon source. Acetone production was confirmed with both strains using HPLC and GC analysis. […] Using appropriate conditions, the produced acetone can then be further converted to isopropanol.
Therefore, both cultures were re-gassed with 30 psi fresh steel-mill gas after 48 h of growth and also re-inoculated. While biomass didn't increase much further, some of the produced acetone got converted into isopropanol within 24 hours (Table 16).
(§1) Constructed expression plasmids pMTL85245-kivd-adh2 and pMTL85245-kivd were transformed into E. coli strain JW3350-2 and prepared for transformation in C. autoethanogenum DSM23693, which was performed as described above. […] In serum bottle experiments, highest isopropanol concentrations from CO-containing steel mill gas were 0.050-0.064 g/L for both expression plasmids (FIGS. 65 and 66).
(§2) All plasmid construct were tested in E. coli and C. autoethanogenum DSM23693 using serum bottle experiments with sugar (E. coli) or CO-containing steel mill gas (C. autoethanogenum) as sole substrate. With all combinations tested, acetone and isopropanol production was measured when expressed heterologously in C. autoethanogenum, while in E. coli acetone production only occurred with few combinations and an alcohol dehydrogenase gene was needed for isopropanol production (Table 21). […] In C. autoethanogenum, acetone and isopropanol production even occurred with expressing the decarboxylase as only heterologous gene, indicating CoA-transferase activity. FIG. 4 illustrates the proposed pathway and Table 21 of acetone and isopropanol formation from CO and FIG. 73 gives an overview of combinations of Clostridial pathway genes and codon-optimized genes for Alpha-ketoacid decarboxylase Kivd from L lactis and Alcohol dehydrogenase Adh2 from S. cerevisiae tested in E. coli and C. autoethanogenum.

E. coli = assay: Serum bottle experiments with plasmid constructs, sugar as sole substrate; assay type: cell-based, Escherichia coli; details: Organism E. coli, 'Detected' = by GC qualitatively
Protocol: as §1, §2

[3] = tested on: Clostridium autoethanogenum DSM23693; assay: Experiment A: continuous fermentation on steel mill gas; assay type: cell-based
Protocol: Clostridium autoethanogenum DSM23693 carrying the vector pMTL83147 thl-ctfAB-adc-adh2 was grown at 37° C. under mill gas (50% CO, 18% CO2, 2% H2, and 30% N2) was continuously fed into the bioreactor. The gas flow was initially set at 80 ml/min, increasing to 200 ml/min over the course of the experiment, while the agitation was increased from 250 rpm to 750 rpm. Na2S was dosed into the bioreactor at 0.20 ml/hr, increasing to 0.4 ml/hr. The bioreactor was switched to a continuous mode at a rate of 1.0 ml/min (Dilution rate 0.96 d^−1) once the OD600 reached 0.17.
Metabolites concentrations were measured using Agilent 1100 Series HPLC system equipped with a RID operated at 35° C. (Refractive Index Detector) and an Alltech IOA-2000 Organic acid column (150×6.5 mm, particle size 5 μm) kept at 60° C. The presence of Acetone and Isopropanol was also measured using Agilent 6890N headspace GC equipped with a Supelco PDMS 100 1 cm fiber, an Alltech EC-1000 (30 m×0.25 mm×0.25 μm) column, and a flame ionization detector (FID). The composition of the gas inflows and outflows was measured using a Varian CP-4900 micro GC with two installed channels. Channel 1 was a 10 m Mol-sieve column running at 70° C., 200 kPa argon and a backflush time of 4.2 s, while channel 2 was a 10 m PPQ column running at 90° C., 150 kPa helium and no backflush. The injector temperature for both channels was 70° C. Sampling of metabolites was performed daily. Gas analysis was automated and measured hourly.
The growth and metabolite profile of Clostridium autoethanogenum DSM23693 carrying the vector pMTL83147 thl-ctfAB-adc-adh2 in a continuous fermentation over 31 days is shown in FIG. 75. The fermentation ran as a batch fermentation from inoculation to day 6. At day 7 the fermentation was switched to continuous fermentation. The increase in acetate concentration coupled with a decrease in ethanol concentration during continuous fermentation seems to have triggered a significant increase in isopropanol production. […] A GC sample was taken during the run, at day 19.

[4] = tested on: C. autoethanogenum DSM23693; assay: Experiment B: bioreactor fermentation on corex gas with cell retention; assay type: cell-based, Clostridium autoethanogenum; details: corex gas 40% CO, continuous mode with membrane cell retention
Protocol: Fermentations with C. autoethanogenum DSM23693 carrying the vector pMTL83147 thl-ctfAB-adc-adh2 were carried out in 1.5 L bioreactors at 37° C. and CO-containing steel mill gas. The fermenter was fed with corex gas (40% CO, 15% H2, 15% CO2, 30% N2) as sole energy and carbon source as described below. A defined medium was used containing per litre: MgCl, CaCl2 (0.5 mM), KCl (3 mM), H3PO4 (5 mM), Fe (100 μM), Ni, Zn (5 μM), Mn, B, W, Mo, Se (2 μM) was prepared for culture growth. The media was transferred into the bioreactor and autoclaved at 121° C. for 45 minutes. After autoclaving, the medium was supplemented with Thiamine, Pantothenate (0.05 mg), Biotin (0.02 mg) and reduced with 3 mM Cysteine-HCl. To achieve anaerobic conditions the reactor vessel was sparged with nitrogen through a 0.2 μm filter. […]
Metabolites concentrations were measured using Agilent 1100 Series HPLC system equipped with a RID operated at 35° C. […] The presence of Acetone and Isopropanol was also measured using Agilent 6890N headspace GC equipped with a Supelco PDMS 100 1 cm fiber, an Alltech EC-1000 (30 m×0.25 mm×0.25 μm) column, and a flame ionization detector (FID). The composition of the gas inflows and outflows was measured using a Varian CP-4900 micro GC with two installed channels. […] Gas analysis was automated and measured hourly.

[5] = continuous fermentation over 31 days, mill gas 50% CO

Compound	inhibition of growth rate [1]	Isopropanol [2] [g/L]	Acetone (g/L) [2]	Acetone (E. coli) [g/L]	further results
CC(C)=O [acetone]	only slight inhibition of growth rate	–	–	–	–
CC(C)O [isopropanol]	only slight inhibition of growth rate	–	–	–	–
pMTL83147-thlA-ctfAB-adc-P-kivd-adh2: expression plasmid with thlA, ctfAB, adc and Ppta-ack-kivd-adh2, Seq. ID. 101	–	0.043	Detected	0.076	–
pMTL83147-thlA-ctfAB-adc-adh2: expression plasmid with thlA, ctfAB, adc and Adh2 from S. cerevisiae, Seq. ID. No. 98	–	0.648	Detected	0.040	presence of the plasmid by PCR ([3]; checked regularly throughout the fermentation): found to be present throughout the fermentation; Isopropanol production rate [3, 5]: 0.7 g per litre per day; isopropanol concentration reached [3, 5]: 0.250 g per litre; isopropanol concentration reached [4]: 0.37 g per Litre
pMTL85147-thlA-ctfAB-adc-kivd: combination plasmid of Clostridial genes and kivd as labelled in Table 21; probably Seq. ID. No. 95	–	0.091	Detected	–	Acetone (g/L) (E. coli): Detected

Source: US9365868B2, “Fermentation process for producing isopropanol using a recombinant microorganism” (LANZATECH NEW ZEALAND LIMITED, priority 2011, dated 2016)
